According to US6635771B2, “N-benzhydryl indole compounds” (Wyeth, priority 2001, dated 2003):

Target: T1, cPLA2 (Homo sapiens, UniProt P47712)
T1 sequence (P47712 1-749): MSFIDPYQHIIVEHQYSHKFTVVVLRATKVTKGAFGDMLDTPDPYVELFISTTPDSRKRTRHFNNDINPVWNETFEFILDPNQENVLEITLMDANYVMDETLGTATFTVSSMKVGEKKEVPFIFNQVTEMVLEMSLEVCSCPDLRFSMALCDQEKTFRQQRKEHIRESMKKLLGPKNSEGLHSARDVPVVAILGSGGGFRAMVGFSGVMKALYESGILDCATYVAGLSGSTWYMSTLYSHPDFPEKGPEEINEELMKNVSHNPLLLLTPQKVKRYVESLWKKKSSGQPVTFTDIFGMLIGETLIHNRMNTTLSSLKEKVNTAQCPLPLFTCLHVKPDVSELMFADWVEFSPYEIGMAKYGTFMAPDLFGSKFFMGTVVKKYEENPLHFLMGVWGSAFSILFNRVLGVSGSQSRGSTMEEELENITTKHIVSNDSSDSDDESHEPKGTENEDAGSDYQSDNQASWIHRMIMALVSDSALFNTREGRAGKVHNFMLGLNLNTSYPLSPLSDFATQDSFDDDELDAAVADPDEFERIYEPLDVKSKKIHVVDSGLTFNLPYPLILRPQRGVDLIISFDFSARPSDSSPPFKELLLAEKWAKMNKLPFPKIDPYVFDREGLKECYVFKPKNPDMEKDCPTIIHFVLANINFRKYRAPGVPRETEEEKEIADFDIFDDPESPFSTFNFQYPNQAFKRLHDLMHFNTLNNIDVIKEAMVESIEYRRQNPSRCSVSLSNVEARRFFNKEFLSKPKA
Test: Coumarine Assay
Format: biochemical
Conditions: 60 μM 7-hydroxycoumarinyl 6-heptenoate substrate, 4 μg cPLA2, pH 7.5, fluorescence ex 360 nm / em 460 nm; read-out: Coumarin IC50
Procedure: Inhibitors were mixed with 200 μL assay buffer (80 mM Heped, pH 7.5, 1 mM EDTA) containing 60 μM 7-hydroxycoumarinyl 6-heptenoate. The reaction was initiated by adding 4 μg cPLA2 in 50 μL assay buffer. Hydrolysis of the 7-hydroxycounarimyl 6-heptenoate ester was monitored in a fluorometer by exciting at 360 nm and monitoring emission at 460 nm. Enzyme activity is proportional to the increase in emission at 460 nm per minute. In the presence of a cPLA2 inhibitor, the rate of increase is less.

SMILES | IC50 [nM]
O=C(O)c1ccc(CNCc2c(CCNS(=O)(=O)Cc3ccccc3)n(C(c3ccccc3)c3ccccc3)c3ccc(Cl)cc23)cc1 [Example 134, 4-({[(1-benzhydryl-2-{2-[(benzylsulfonyl)amino]ethyl}-5-chloro-1H-indol-3-yl)methyl]amino}methyl)benzoic acid] | > 1000
O=C(O)c1ccc(S(=O)(=O)CCc2c(CCNS(=O)(=O)Cc3ccccc3)n(C(c3ccccc3)c3ccccc3)c3ccc(Cl)cc23)cc1 [Example 135] | 200
O=C(O)c1ccc(S(=O)(=O)CCc2c(CCNS(=O)(=O)Cc3ccccc3Cl)n(C(c3ccccc3)c3ccccc3)c3ccc(Cl)cc23)cc1 [Example 136] | 180
O=C(O)c1ccc(S(=O)(=O)CCc2c(CCNS(=O)(=O)Cc3ccccc3F)n(C(c3ccccc3)c3ccccc3)c3ccc(Cl)cc23)cc1 [Example 138, 4-({2-[1-benzhydryl-5-chloro-2-(2-{[(2-fluorobenzyl)sulfonyl]amino}ethyl)-1H-indol-3-yl]ethyl}sulfonyl)benzoic acid] | 200
O=C(O)c1ccc(OCCc2c(CCNS(=O)(=O)CCN3CCCC3)n(C(c3ccccc3)c3ccccc3)c3ccc(Cl)cc23)cc1 [Example 139, 4-(2-{1-Benzhydryl-5-chloro-2-[2-(2-pyrrolidin-1-yl-ethanesulfonylamino)-ethyl]-1H-indol-3-yl}-ethoxy)-benzoic acid] | 1700
O=C(O)c1ccc(S(=O)(=O)CCc2c(CCNS(=O)(=O)Cc3ccc(Cl)c(Cl)c3)n(C(c3ccccc3)c3ccccc3)c3ccc(Cl)cc23)cc1 [Example 140, 4-({2-[1-benzhydryl-5-chloro-2-(2-{[(3,4-dichlorobenzyl)sulfonyl]amino}ethyl)1H-indol-3-yl]ethyl}sulfonyl)benzoic acid] | 200
Cc1cccc(C)c1CS(=O)(=O)NCCc1c(CCS(=O)(=O)c2ccc(C(=O)O)cc2)c2cc(Cl)ccc2n1C(c1ccccc1)c1ccccc1 [Example 141, 4-({2-[1-benzhydryl-5-chloro-2-(2-{[(2,6-dimethylbenzyl)sulfonyl]amino}ethyl) 1H-indol-3-yl]ethyl}sulfonyl)benzoic acid] | 170
